Experimental data as given in PMC6325200, “Effects of Microplate Type and Broth Additives on Microdilution MIC Susceptibility Assays” (Antimicrobial Agents and Chemotherapy, 2018).
In brackets after ≈: the same amount, converted by molar mass. Read-outs that look alike come from different tables or passages of the source.

What was measured:
MRSA ATCC 43300 = tested on: MRSA ATCC 43300
Description: (§1) A positive control of a row of just the bacteria and a negative control of only the medium were included for every plate tested.
(§2) The compounds along with standard antibiotics were serially diluted 2-fold across the 96-well plates. […] A sample of each culture was then diluted 40-fold in fresh MH broth (in presence and absence of Tween) and incubated at 37°C for 2 to 3 h.
For experiments in the presence of surfactant, 2% beractant (25 mg/ml) was added to the mid-log-phase cultures and mixed gently and added to all the 96-well plates. For experiments in the presence of serum, a mixture of 50% of human serum along with 50% MHB was prepared and used throughout the experiment.

[1] = literature values, reference given; cited from earlier work
Text: Other assay additives can affect MIC values. […] Plasma protein binding has been implicated as a major factor limiting the active free concentration of many clinically important antibiotics ([37][–][42]).

E. faecalis ATCC 29212 = test: microbe, parasite or virus in culture; settings: n = 2
Description: as §1, §2

[2] = tested on: MSSA S. aureus ATCC 25923; test: microbe, parasite or virus in culture; settings: n = 2
Description: as §1, §2

[3] = tested on: S. aureus GISA NRS 2; ATCC 700698; test: microbe, parasite or virus in culture; settings: n = 2
Description: as §1, §2

S. pneumoniae ATCC 33440 = test: microbe, parasite or virus in culture; settings: n = 2
Description: as §1, §2

[4] = tested on: S. pneumoniae ATCC 700677 (MDR); test: microbe, parasite or virus in culture; settings: n = 2
Description: as §1, §2

S. pyogenes ATCC 12344 = settings: n = 2
Description: as §1, §2

MRSA = settings: literature value; cited from earlier work
Text: TABLE 1 Literature MIC values for tested antibiotics | column: MIC (µg/ml) (reference[s]) / MRSA

[5] = Corning flat NBS plate, MHB +0.002% T80, no further additive, n = 2
[6] = Corning flat PS plate, MHB −T80, no additive, n = 2

CNC(=O)[C@H](CCCCNC(=O)[C@H]1NC(=O)[C@H]2NC(=O)[C@H](NC(=O)[C@@H]3NC(=O)[C@H](CC(N)=O)NC(=O)[C@H](NC(=O)[C@@H](CC(C)C)NC)[C@H](O)c4ccc(c(Cl)c4)Oc4cc3cc(c4O[C@@H]3O[C@H](CO)[C@@H](O)[C@H](O)[C@H]3O[C@H]3C[C@](C)(N)[C@H](O)[C@H](C)O3)Oc3ccc(cc3Cl)[C@H]2O)c2ccc(O)c(c2)-c2c(O)cc(O)cc21)NC(=O)[C@H](CCCCN)NC(=O)[C@H](CCCCN)NC(=O)[C@H](CCCCNC(=O)c1ccc(Oc2ccccc2)cc1)NC(=O)c1ccc(Oc2ccccc2)cc1 [MCC310]
MIC (MRSA ATCC 43300; [5]): 0.007 µg/mL (≈ 0.00296 µM)
MIC (MRSA ATCC 43300; [6]): 4 µg/mL (≈ 1.69 µM)

daptomycin
protein binding [1]: 92%

CC(=O)NC[C@H]1CN(c2ccc(N3CCOCC3)c(F)c2)C(=O)O1 [linezolid]
protein binding [1]: 31%

C[C@@H](O)[C@H]1C(=O)N2C(C(=O)O)=C(S[C@@H]3CN[C@H](C(=O)N(C)C)C3)[C@H](C)[C@H]12 [meropenem]
protein binding [1]: 2%

CN[C@H](CC(C)C)C(=O)N[C@H]1C(=O)N[C@@H](CC(N)=O)C(=O)N[C@H]2C(=O)N[C@H]3C(=O)N[C@H](C(=O)N[C@H](C(=O)O)c4cc(O)cc(O)c4-c4cc3ccc4O)[C@H](O)c3ccc(c(Cl)c3)Oc3cc2cc(c3O[C@@H]2O[C@H](CO)[C@@H](O)[C@H](O)[C@H]2O[C@H]2C[C@](C)(N)[C@H](O)[C@H](C)O2)Oc2ccc(cc2Cl)[C@H]1O [Vancomycin, vancomycin]
MIC (MRSA ATCC 43300; Corning NBS, MH + 2% LHB, 2% LS, n = 2): 0.5 to 1 µg/mL
MIC (MRSA ATCC 43300; Corning NBS, MH + 2% LHB, 50% HS, n = 2): 0.5 to 1 µg/mL
MIC (MRSA ATCC 43300; Corning NBS, MH + 2% LHB, no additive, n = 2): 1 µg/mL
MIC (MRSA ATCC 43300; Corning NBS, MH + T80, 2% LS, n = 2): 0.25 to 0.5 µg/mL
MIC (MRSA ATCC 43300; Corning NBS, MH + T80, 50% HS, n = 2): 1 µg/mL
MIC (MRSA ATCC 43300; Corning NBS, MH, 2% LS, n = 2): 0.5 µg/mL (≈ 0.345 µM)
MIC (MRSA ATCC 43300; Corning NBS, MH, 50% HS, n = 2): 0.25 to 0.5 µg/mL
MIC (MRSA ATCC 43300; Corning PS, MH + 2% LHB, 2% LS, n = 2): 0.5 to 1 µg/mL
MIC (MRSA ATCC 43300; Corning PS, MH + 2% LHB, 50% HS, n = 2): 0.5 to 1 µg/mL
MIC (MRSA ATCC 43300; Corning PS, MH + 2% LHB, no additive, n = 2): 1 µg/mL
MIC (MRSA ATCC 43300; Corning PS, MH + T80, 2% LS, n = 2): 0.5 to 2 µg/mL
MIC (MRSA ATCC 43300; Corning PS, MH + T80, 50% HS, n = 2): 0.5 µg/mL
MIC (MRSA ATCC 43300; Corning PS, MH, 2% LS, n = 2): 0.5 to 1 µg/mL
MIC (MRSA ATCC 43300; Corning PS, MH, 50% HS, n = 2): 0.25 to 0.5 µg/mL
MIC (MRSA ATCC 43300; Corning TC, MH + 2% LHB, 2% LS, n = 2): 0.5 to 1 µg/mL
MIC (MRSA ATCC 43300; Corning TC, MH + 2% LHB, 50% HS, n = 2): 0.5 µg/mL
MIC (MRSA ATCC 43300; Corning TC, MH + 2% LHB, no additive, n = 2): 0.5 µg/mL
MIC (MRSA ATCC 43300; Corning TC, MH + T80, 2% LS, n = 2): 0.5 µg/mL
MIC (MRSA ATCC 43300; Corning TC, MH + T80, 50% HS, n = 2): 0.5 to 1 µg/mL
MIC (MRSA ATCC 43300; Corning TC, MH, 2% LS, n = 2): 0.25 to 1 µg/mL
MIC (MRSA ATCC 43300; Corning TC, MH, 50% HS, n = 2): 0.25 to 0.5 µg/mL
MIC (MRSA ATCC 43300; [5]): 1 µg/mL (≈ 0.69 µM)
MIC (MRSA ATCC 43300; Corning flat NBS plate, MHB −T80, no additive, n = 2): 0.5 µg/mL (≈ 0.345 µM)
MIC (MRSA ATCC 43300; Corning flat PS plate, MHB +0.002% T80, no further additive, n = 2): 1 to 2 µg/mL
MIC (MRSA ATCC 43300; [6]): 0.5 µg/mL (≈ 0.345 µM)
MIC (MRSA ATCC 43300; Corning flat TC plate, MHB +0.002% T80, no further additive, n = 2): 1 µg/mL (≈ 0.69 µM)
MIC (MRSA ATCC 43300; Corning flat TC plate, MHB −T80, no additive, n = 2): 0.5 µg/mL (≈ 0.345 µM)
MIC (MRSA ATCC 43300; Nunc U TC plate, MHB +0.002% T80, n = 2): 1 µg/mL (≈ 0.69 µM)
MIC (MRSA ATCC 43300; Nunc U TC plate, MHB −T80, n = 2): 0.5 µg/mL (≈ 0.345 µM)
MIC (MRSA ATCC 43300; Nunc flat PS plate, MHB +0.002% T80, n = 2): 1 µg/mL (≈ 0.69 µM)
MIC (MRSA ATCC 43300; Nunc flat PS plate, MHB −T80, n = 2): 1 µg/mL (≈ 0.69 µM)
MIC (MRSA ATCC 43300; Nunc flat TC plate, MHB +0.002% T80, n = 2): 1 µg/mL (≈ 0.69 µM)
MIC (MRSA ATCC 43300; Nunc flat TC plate, MHB −T80, n = 2): 1 to 2 µg/mL
MIC (MRSA ATCC 43300; Trek PS, MH + 2% LHB, 2% LS, n = 2): 0.25 to 0.5 µg/mL
MIC (MRSA ATCC 43300; Trek PS, MH + 2% LHB, 50% HS, n = 2): 0.5 µg/mL
MIC (MRSA ATCC 43300; Trek PS, MH + 2% LHB, no additive, n = 2): 0.25 µg/mL
MIC (MRSA ATCC 43300; Trek PS, MH + T80, 2% LS, n = 2): 0.06 to 1 µg/mL
MIC (MRSA ATCC 43300; Trek PS, MH + T80, 50% HS, n = 2): 0.25 to 0.5 µg/mL
MIC (MRSA ATCC 43300; Trek PS, MH, 2% LS, n = 2): 0.03 µg/mL (≈ 0.0207 µM)
MIC (MRSA ATCC 43300; Trek PS, MH, 50% HS, n = 2): 0.25 µg/mL (≈ 0.173 µM)
MIC (MRSA ATCC 43300; Trek flat PS plate, MHB +0.002% T80, no further additive, n = 2): 1 µg/mL (≈ 0.69 µM)
MIC (MRSA ATCC 43300; Trek flat PS plate, MHB −T80, no additive, n = 2): 0.5 to 1 µg/mL
MIC (MRSA ATCC 43300; regardless of plate type or addition of T80): around 1 µg/ml
MIC (E. faecalis ATCC 29212; Corning NBS, MHB +T80): 1 µg/mL (≈ 0.69 µM)
MIC (E. faecalis ATCC 29212; Corning NBS, MHB -T80): 1 to 2 µg/mL
MIC (E. faecalis ATCC 29212; Corning PS, MHB +T80): 1 µg/mL (≈ 0.69 µM)
MIC (E. faecalis ATCC 29212; Corning PS, MHB -T80): 1 µg/mL (≈ 0.69 µM)
MIC (E. faecalis ATCC 29212; Corning TC, MHB +T80): 1 µg/mL (≈ 0.69 µM)
MIC (E. faecalis ATCC 29212; Corning TC, MHB -T80): 1 to 2 µg/mL
MIC ([2]; Corning NBS, MHB +T80): 1 to 2 µg/mL
MIC ([2]; Corning NBS, MHB -T80): 0.5 to 1 µg/mL
MIC ([2]; Corning PS, MHB +T80): 1 to 2 µg/mL
MIC ([2]; Corning PS, MHB -T80): 0.5 to 1 µg/mL
MIC ([2]; Corning TC, MHB +T80): 1 µg/mL (≈ 0.69 µM)
MIC ([2]; Corning TC, MHB -T80): 0.5 to 1 µg/mL
MIC ([3]; Corning NBS, MHB +T80): 0.5 to 1 µg/mL
MIC ([3]; Corning NBS, MHB -T80): 0.5 µg/mL (≈ 0.345 µM)
MIC ([3]; Corning PS, MHB +T80): 0.5 to 1 µg/mL
MIC ([3]; Corning PS, MHB -T80): 0.5 to 1 µg/mL
MIC ([3]; Corning TC, MHB +T80): 0.5 µg/mL (≈ 0.345 µM)
MIC ([3]; Corning TC, MHB -T80): 0.5 to 1 µg/mL
MIC (S. pneumoniae ATCC 33440; Corning NBS, MHB +T80): 0.5 to 1 µg/mL
MIC (S. pneumoniae ATCC 33440; Corning NBS, MHB -T80): 0.5 to 1 µg/mL
MIC (S. pneumoniae ATCC 33440; Corning PS, MHB +T80): 1 µg/mL (≈ 0.69 µM)
MIC (S. pneumoniae ATCC 33440; Corning PS, MHB -T80): 1 µg/mL (≈ 0.69 µM)
MIC (S. pneumoniae ATCC 33440; Corning TC, MHB +T80): 1 µg/mL (≈ 0.69 µM)
MIC (S. pneumoniae ATCC 33440; Corning TC, MHB -T80): 0.5 to 1 µg/mL
MIC ([4]; Corning NBS, MHB +T80): 1 to 2 µg/mL
MIC ([4]; Corning NBS, MHB -T80): 0.5 µg/mL (≈ 0.345 µM)
MIC ([4]; Corning PS, MHB +T80): 1 µg/mL (≈ 0.69 µM)
MIC ([4]; Corning PS, MHB -T80): 1 µg/mL (≈ 0.69 µM)
MIC ([4]; Corning TC, MHB +T80): 0.5 to 1 µg/mL
MIC ([4]; Corning TC, MHB -T80): 1 µg/mL (≈ 0.69 µM)
MIC (S. pyogenes ATCC 12344; Corning NBS, MHB +T80): 0.125 to 0.25 µg/mL
MIC (S. pyogenes ATCC 12344; Corning NBS, MHB -T80): 0.125 to 0.25 µg/mL
MIC (S. pyogenes ATCC 12344; Corning PS, MHB +T80): 0.125 µg/mL (≈ 0.0863 µM)
MIC (S. pyogenes ATCC 12344; Corning PS, MHB -T80): 0.125 µg/mL (≈ 0.0863 µM)
MIC (S. pyogenes ATCC 12344; Corning TC, MHB +T80): 0.125 to 0.25 µg/mL
MIC (S. pyogenes ATCC 12344; Corning TC, MHB -T80): 0.125 µg/mL (≈ 0.0863 µM)
MIC (literature) (MRSA): 2 ([62]) µg/ml
protein binding [1]: 55%
